Patent US20090099169A1, “Benzofuran Compounds As EP1 Receptor Antagonists” (GLAXO GROUP LIMITED, priority 2006, published 2009)

Molecular target: T1, human EP3 receptor (Homo sapiens, UniProt P43115)
T1 construct: expressed in transfected cells; host or cells: CHO-K1
T1 sequence (P43115 1-390): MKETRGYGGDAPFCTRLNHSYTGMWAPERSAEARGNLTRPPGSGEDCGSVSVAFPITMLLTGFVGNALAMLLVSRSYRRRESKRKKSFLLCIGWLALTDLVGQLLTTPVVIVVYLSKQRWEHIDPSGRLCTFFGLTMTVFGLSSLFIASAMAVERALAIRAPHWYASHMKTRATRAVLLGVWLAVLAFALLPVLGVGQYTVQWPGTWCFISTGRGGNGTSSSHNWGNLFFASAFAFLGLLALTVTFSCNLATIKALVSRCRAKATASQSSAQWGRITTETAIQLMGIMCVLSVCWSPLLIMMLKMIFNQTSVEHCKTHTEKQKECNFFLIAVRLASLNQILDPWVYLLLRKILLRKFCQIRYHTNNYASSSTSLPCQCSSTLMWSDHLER
Assay: human EP3 calcium mobilisation assay
Assay type: cell-based
Conditions: CHO-K1 cells, antagonism of PGE2; averages of a number of experiments; read-out: functional pKi value (human EP3 calcium mobilisation assay) (converted)
Procedure: Briefly, the antagonist properties of compounds are assessed by their ability to inhibit the mobilisation of intracellular calcium ([Ca^2+]i) in response to activation of EP1 or EP3 receptors by the natural agonist hormone prostaglandin E2 (PGE2). Increasing concentrations of antagonist reduce the amount of calcium that a given concentration of PGE2 can mobilise. The net effect is to displace the PGE2 concentration-effect curve to higher concentrations of PGE2. The amount of calcium produced is assessed using a calcium-sensitive fluorescent dye such as Fluo-4, AM and a suitable instrument such as a Fluorimetric Imaging Plate Reader (FLIPR). Increasing amounts of [Ca^2+]i produced by receptor activation increase the amount of fluorescence produced by the dye and give rise to an increasing signal. The signal may be detected using the FLIPR instrument and the data generated may be analysed with suitable curve-fitting software.
The human EP1 or EP3 calcium mobilisation assay (hereafter referred to as ‘the calcium assay’) utilises Chinese hamster ovary-K1 (CHO-K1) cells into which a stable (PCIN; BioTechniques 20 (1996): 102-110) vector containing either EP1 or EP3 cDNA has previously been transfected. Cells are cultured in suitable flasks containing culture medium such as DMEM:F-12 supplemented with 10% v/v foetal calf serum, 2 mM L-glutamine, 0.25 mg/ml geneticin, 100 μM flurbiprofen and 10 μg/ml puromycin.
For assay, cells are harvested using a proprietary reagent that dislodges cells such as Versene. Cells are re-suspended in a suitable quantity of fresh culture media for introduction into a 384-well plate. Following incubation for 24 hours at 37° C. the culture media is replaced with a medium containing Fluo-4 and the detergent pluronic acid, and a further incubation takes place. Concentrations of compounds are then added to the plate in order to construct concentration-effect curves. This may be performed on the FLIPR in order to assess the agonist properties of the compounds. Concentrations of PGE2 are then added to the plate in order to assess the antagonist properties of the compounds.
The data so generated may be analysed by means of a computerised curve-fitting routine. The concentration of compound that elicits a half-maximal inhibition of the calcium mobilisation induced by PGE2 (pIC50) may then be estimated.

| Ki | Compound |
| --- | --- |
| 0.501 to 10 µM | CC(C)c1cc2cc(Cl)cc(Cc3ccc(C(=O)O)o3)c2o1 [Example 1, 5-{[5-Chloro-2-(1-methylethyl)-1-benzofuran-7-yl]methyl}-2-furancarboxylic Acid] |
| 0.501 to 10 µM | Cc1cc(C(=O)O)nn1Cc1cc(Cl)cc2cc(C(C)C)oc12 [Example 3, 1-{[5-Chloro-2-(1-methylethyl)-1-benzofuran-7-yl]methyl}-5-methyl-1H-pyrazole-3-carboxylic Acid] |
